The subject of series [1] is Bacillus subtilis. Nature of the series: Antibacterial activity against Bacillus subtilis assessed as inhibition of bacterial growth at 100 uM. It counts as functional, organism-based.
The test system of series [2] is Escherichia coli. Nature of the series: Antibacterial activity against Escherichia coli assessed as inhibition of bacterial growth at 100 uM. Type of series: functional, organism-based.
Series [3] relates to Pseudomonas aeruginosa. Nature of the series: Antibacterial activity against Pseudomonas aeruginosa assessed as inhibition of bacterial growth at 100 uM. Type of series: functional, organism-based.
In series [4] the test system is Staphylococcus aureus. Put plainly: Antibacterial activity against Staphylococcus aureus assessed as inhibition of bacterial growth at 100 uM. It counts as functional, organism-based.
Series [5] relates to RAW264.7. Put plainly: Anti-inflammatory activity against LPS-induced mouse RAW264.7 cells assessed as inhibition of IL-1 beta production at 100 uM by ELISA. It counts as functional. On the technique in general: In an ELISA, binding on a coated surface is turned into a signal by an enzyme label.
Series [6] deals with RAW264.7. Put plainly: Anti-inflammatory activity against LPS-induced mouse RAW264.7 cells assessed as inhibition of NO production. It counts as functional, cell-based.
Series [7] deals with RAW264.7. Put plainly: Anti-inflammatory activity against LPS-induced mouse RAW264.7 cells assessed as inhibition of NO production at 100 uM. It counts as functional, cell-based.
Series [8] concerns RAW264.7. Put plainly: Cytotoxicity against mouse RAW264.7 cells assessed as effect on cell viability at 100 uM. Type of series: toxicity, cell-based. The conditions noted are these: raw264.7, 100 µM.
For series [9], the system named is RAW264.7. Put plainly: Anti-inflammatory activity against LPS-induced mouse RAW264.7 cells assessed as inhibition of TNF-alpha production at 100 uM by ELISA. It counts as functional.
The nature of series [10]: Stability of the compound in dichloromethane measured after 2 months. Type of series: physicochemical. The conditions noted are these: 1460 h.
Series [11] relates to RAW264.7. Nature of the series: Pro-inflamamtory activity in LPS-induced mouse RAW264.7 cells assessed as increase in NO production at 100 uM. Type of series: functional, cell-based.

Activity calls are given as the source filed them. The rule behind the calls is not given here.

For `C/C=C1/C2=CCCN3C(=O)O[C@H]([C@@H]1Cl)[C@H]23`, the result in series [1], in [2], in series [3] and in series [4] was inactive.

For orientation: inhibition means the share of the control response that was lost under treatment. The IC50 is the midpoint of a concentration-inhibition curve. As to `C/C=C1/C2=CCCN3C(=O)O[C@H]([C@H]1OC(=O)CCCC)[C@H]23`, the inhibition at 100 µM in series [5] was more than 90%; in [9], not above 60%. In addition, the Activity result in series [6] was “Dose-dependent-effect”; in series [8], “Non-toxic”. For the same compound, in [6], the IC50 was found to be 8.8 µM. For the same compound, the outcome in series [7] was Active. Besides, the outcome in series [1], in [2], in series [3] and in [4] was inactive. In addition, the Stability result in [10] is reported as “Stable”.

For `C/C=C1/C2=CCCN3C(=O)O[C@H]([C@H]1OC(=O)CC)[C@H]23`, the outcome in series [7], in series [1], in series [2], in series [3] and in series [4] was inactive.

Take `C/C=C1/C2=CCCN3C(=O)O[C@H]([C@H]1OC(=O)/C=C/c1ccccc1)[C@H]23`: in [7], the outcome was Active. Besides, the result in series [1], in [2], in series [3] and in series [4] was inactive.

Consider `C/C=C1/C2=CCCN3C(=O)O[C@H]([C@H]1OC(=O)CCC)[C@H]23`, for which the result in series [7], in series [1], in [2], in series [3] and in series [4] was inactive.

Turning to `C/C=C1/C2=CCCN3C(=O)O[C@H]([C@H]1OC(C)=O)[C@H]23`, the result in [7], in [1], in [2], in series [3] and in series [4] was inactive.

Regarding `C/C=C1/C2=CCCN3C(=O)O[C@H]([C@H]1OS(=O)(=O)CCC)[C@H]23`, the outcome in [7] was Active. For the same compound, the outcome in series [1], in [2], in [3] and in series [4] was inactive.

With `C/C=C1/C2=CCCN3C(=O)O[C@H]([C@H]1OC(=O)CCCCCCCCC)[C@H]23`, the result in series [7], in [1], in series [2], in series [3] and in series [4] was inactive. Besides, the outcome in series [11] was Active.

On to `C/C=C1/C2=CCCN3C(=O)O[C@H]([C@H]1OC(=O)C(C)(C)C)[C@H]23`, for which the result in series [7] was Active. In addition, the result in [1], in series [2], in series [3] and in series [4] was inactive.

In the case of `C/C=C1/C2=CCCN3C(=O)O[C@H]([C@H]1OC(=O)C1CCCCC1)[C@H]23`, in series [7], the result was Active. The result in series [1], in series [2], in series [3] and in [4] was inactive.

For the compound `C/C=C1/C2=CCCN3C(=O)O[C@H]([C@H]1OC(=O)C(C)C)[C@H]23`, the outcome in [7], in series [1], in [2], in series [3] and in series [4] was inactive.

With `C/C=C1/C2=CCCN3C(=O)O[C@H]([C@H]1OC(=O)CCCCCCCCCCC)[C@H]23`, the result in series [7], in series [1], in [2], in series [3] and in series [4] was inactive.

With `C/C=C1/C2=CCCN3C(=O)O[C@H]([C@H]1O)[C@H]23`, the result in [1], in series [2], in series [3] and in series [4] was inactive. Also, the result in [11] was Active.

Consider `C/C=C1/C2=CCCN3C(=O)O[C@H]([C@H]1OS(C)(=O)=O)[C@H]23`, for which the outcome in series [7] was Active. The result in series [1], in series [2], in [3] and in series [4] was inactive.

As for `C/C=C1/C2=CCCN3C(=O)O[C@H]([C@H]1OC(=O)c1ccc(C)cc1)[C@H]23`, in series [7], the result was Active. Moreover, the result in series [1], in series [2], in [3] and in [4] was inactive.

As to `C/C=C1/C2=CCCN3C(=O)O[C@H]([C@H]1OC(=O)c1ccccc1)[C@H]23`, the result in series [7] was Active. The result in series [1], in series [2], in [3] and in series [4] was inactive.
